Measurements reported in USRE47689E1, “Compounds for treating spinal muscular atrophy” (PTC Therapeutics, Inc., priority 2011, dated 2019).

System: SMN2 minigene (full length SMN2 minigene mRNA containing SMN2 exon 7)
Experiment: SMN2 minigene mRNA splicing RT-qPCR assay in cultured cells
Assay type: cell-based, human
Details: for exon 7 inclusion / SMN2mini FL mRNA relative to vehicle control: HEK293H cells with SMN2-A minigene; for exon 7 inclusion: relative to untreated cells; for SMN2mini FL mRNA relative to vehicle control: rising concentrations, 24 hr; for EC (1.5-fold): Homo sapiens, HEK293-H, HEK293H cells stably transfected with SMN2-A minigene, 24 hours, 7-point concentration curve, 1.5-fold relative to vehicle-treated cells, read-out: EC1.5x for production of full length SMN2 mRNA
Method in brief: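 Read-out: full-length (exon 7-included) SMN2 minigene mRNA by multiplex RT-qPCR with GAPDH, efficiency-corrected (1+E)^−Ct, GAPDH-normalized and divided by vehicle. Stably transfected HEK293H cells, 24 h compound exposure, duplicates per concentration. Value is EC1.5x, reported as star ranges.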

SMILES | exon 7 inclusion | SMN2mini FL mRNA relative to vehicle control | EC (1.5-fold) [µM]
CC(C)NCCc1ccc2cc(-c3nc4c(Cl)cccc4s3)c(=O)oc2c1 [Cpd 35, 3-(4-chloro-1,3-benzothiazol-2-yl)-7-[2-(propan-2-ylamino)ethyl]-2H-chromen-2-one] | fully restored exon 7 inclusion relative to untreated cells | increased SMN2mini FL mRNA at low concentrations | 0.3 to 1
CCN1CCN(c2ccc3cc(-c4cn5cc(C)nc(C)c5n4)c(=O)oc3c2)C[C@@H]1C [Cpd 626, 3-(6,8-dimethylimidazo[1,2-a]pyrazin-2-yl)-7-[(3S)-4-ethyl-3-methylpiperazin-1-yl]-2H-chromen-2-one] | fully restored exon 7 inclusion relative to untreated cells | increased SMN2mini FL mRNA at low concentrations | < 0.1
